IC50 data for 30 compounds are collected here from patent US12390437B2, “Itaconic acid derivatives and uses thereof intreating an inflammatory disease or a disease associated with an undesirable immune response” (Sitryx Therapeutics Limited, priority 2019, dated 2025).

Molecules are shown by their SMILES.

In assay [1] the test system is IL-1β cytokine output from THP-1s. The experiment in a line: THP-1 AlphaLISA IL-1β cytokine assay. It is filed as cell-based, human. Particulars: Homo sapiens, THP-1, PMA-differentiated THP-1 cells, LPS 24 hr then Nigericin 1 hour; read-out: IL-1β (IC50). Put shortly: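 Percent inhibition, normalised to plus- and minus-LPS controls, was plotted against concentration to derive IC50. Differentiated THP-1 cells received compound 30 min ahead of LPS (24 h) and a 1 h nigericin pulse; AlphaLISA quantified supernatant cytokine.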

For assay [2], the system named is IL-6 cytokine output from THP-1s. The experiment in a line: THP-1 AlphaLISA IL-6 cytokine assay. It is filed as cell-based, human. Particulars: Homo sapiens; PMA-differentiated THP-1 cells, LPS 24 hr then Nigericin 1 hour. On the procedure: Measuring Inhibitory Effects on IL-1β and IL-6 Cytokine Output from THP-1s
The cytokine inhibition profiles of compounds of formula (IW-1) were determined in a differentiated THP-1 cell assay. All assays were performed in RPMI-1640 growth medium (Gibco), supplemented with 10% fetal bovine serum (FBS; Gibco), 1% penicillin-streptomycin and 1% sodium pyruvate unless specified otherwise. The IL-1β and IL-6 cytokine inhibition assays were each run in a background of differentiated THP-1 cells as described below. All reagents described were from Sigma-Aldrich unless specified otherwise. Compounds were prepared as 10 mM DMSO stocks.
THP-1 cells were expanded as a suspension up to 80% confluence in appropriate growth medium. Cells were harvested, suspended, and treated with an appropriate concentration of phorbol 12-myristate 13-acetate (PMA) over a 72 hr period (37° C./5% CO2).
Following 72 hrs of THP-1 cell incubation, cellular medium was removed and replaced with fresh growth media containing 1% of FBS. Working concentrations of compounds were prepared separately in 10% FBS treated growth medium and pre-incubated with the cells for 30 minutes (37° C./5% CO2). Following the 30 minute compound pre-incubation, THP-1s were treated with an appropriate concentration of LPS and the THP-1s were subsequently incubated for a 24 hr period (37° C./5% CO2). An appropriate final concentration of Nigericin was then dispensed into the THP-1 plates and incubated for 1 hour (37° C./5% CO2) before THP-1 supernatants were harvested and collected in separate polypropylene 96-well holding plates.
Reagents from each of the IL-1β and IL-6 commercial kits (Perkin Elmer) were prepared and run according to the manufacturer's instructions. Subsequently, fluorescence signal detection in a microplate reader was measured (EnVision® Multilabel Reader, Perkin Elmer).
Percentage inhibition was calculated per cytokine by normalising the sample data to the high and low controls used within each plate (+/−LPS respectively). Percentage inhibition was then plotted against compound concentration and the 50% inhibitory concentration (IC50) was determined from the resultant concentration-response curve.

Consider `C=C(CC(=O)OCCCCCCCC)C(=O)OC(C)CC#N` (stereo not drawn) [Example 27, 1-(1-cyanopropan-2-yl) 4-octyl 2-methylenesuccinate], for which the values for the IC50 in assay [1] and in assay [2] were 12.2 µM and 6.4 µM, respectively.

Regarding `C=C(CC(=O)OCCCCCCCC)C(=O)OCCN1CCS(=O)(=O)CC1` [Example 52, 1-(2-(1,1-dioxidothiomorpholino)ethyl) 4-octyl 2-methylenesuccinate], the results for the IC50 in assay [1] and in assay [2] were 8.5 µM and 2.5 µM, respectively.

In the case of `C=C(CC(=O)O[C@H](C)CCCCCC)C(=O)OCCN1CCCC1=O` [Example 72, (R)-4-(octan-2-yl) 1-(2-(2-oxopyrrolidin-1-yl)ethyl) 2-methylenesuccinate], the IC50 came to 11.4 µM in assay [1] and 8.2 µM in assay [2].

With `C=C(CC(=O)OCCCCCCCC)C(=O)OCCOC` [Example 29, 1-(2-methoxyethyl) 4-octyl 2-methylenesuccinate], the IC50 was determined as 18.4 µM in assay [1] and 7.9 µM in assay [2].

On to `C=C(CC(=O)OCCCCCCCC)C(=O)OC(C)C(=O)O` (stereo not drawn) [Example 79, 2-((2-methylene-4-(octyloxy)-4-oxobutanoyl)oxy)propanoic acid], for which the IC50 in assay [1] turned out to be 11.9 µM; in assay [2], 13.5 µM.

For the compound `C=C(CC(=O)OCCCCCCCC)C(=O)OCC(=O)N1CCN(C)CC1` [Example 107, 1-(2-(4-methylpiperazin-1-yl)-2-oxoethyl) 4-octyl 2-methylenesuccinate], the IC50 in assay [1] was 10 µM; in assay [2], 2.7 µM.

Consider `C=C(CC(=O)OCCCCCCCC)C(=O)OC1CCN(S(C)(=O)=O)CC1` [Example 28, 1-(1-(methylsulfonyl)piperidin-4-yl) 4-octyl 2-methylenesuccinate], for which the IC50 stood at 5.2 µM in assay [1] and 2.2 µM in assay [2].

As to `C=C(CC(=O)OCCCCCCCC)C(=O)OCC(C)(C)C#N` [Example 30, 1-(2-cyano-2-methylpropyl) 4-octyl 2-methylenesuccinate], the concentration for half-maximal inhibition (IC50) in assay [1] worked out at 11.3 µM; in assay [2], 4.8 µM.

For `C=C(CC(=O)OCCCCCCCC)C(=O)OC(C)COC` (stereo not drawn) [Example 31, 1-(1-methoxypropan-2-yl) 4-octyl 2-methylenesuccinate], the figures for the IC50 in assay [1] and in assay [2] were 12.9 µM and 15.5 µM, respectively.

Turning to `C=C(CC(=O)OC)C(=O)OC1COC1` [Example 15, 4-methyl 1-(oxetan-3-yl) 2-methylenesuccinate], the IC50 in assay [1] was determined as 15.4 µM; in assay [2], 8.9 µM.

Regarding `C=C(CC(=O)O[C@H](C)CCCCCC)C(=O)OC1CN(C(C)=O)C1` [Example 58, (R)-1-(1-acetylazetidin-3-yl) 4-(octan-2-yl) 2-methylenesuccinate], the IC50 in assay [1] was 6.5 µM; in assay [2], 3.8 µM.

Turning to `C=C(C(=O)O[C@H]1CCOC1)C(C)C(=O)OCCCCCCCC` (stereo partly drawn) [Example 139, 1-octyl 4-((S)-tetrahydrofuran-3-yl) 2-methyl-3-methylenesuccinate], the IC50 turned out to be 21.7 µM in assay [1] and 15.1 µM in assay [2].

Regarding `C=C(CC(=O)OCCCOCC)C(=O)OCC(=O)O` [Example 114, 2-((4-(3-ethoxypropoxy)-2-methylene-4-oxobutanoyl)oxy)acetic acid], the IC50 in assay [1] stood at 100 µM; in assay [2] it was 56.2 µM.

In the case of `C=C(CC(=O)O[C@H](C)CCCCCC)C(=O)OCCS(C)(=O)=O` [Example 55, (R)-1-(2-(methylsulfonyl)ethyl) 4-(octan-2-yl) 2-methylenesuccinate], the IC50 is 5.1 µM in assay [1] and 3.8 µM in assay [2].

For `C=C(CC(=O)O[C@H](C)CCCCCC)C(=O)OC1CCOCC1` [Example 73, (R)-4-(octan-2-yl) 1-(tetrahydro-2H-pyran-4-yl) 2-methylenesuccinate], the IC50 in assay [1] stood at 24.1 µM; in assay [2], 23.5 µM.

`C=C(CC(=O)OCCCCCCCC)C(=O)OC(C)OC(C)=O` (stereo not drawn) [Example 46, 1-(1-acetoxyethyl) 4-octyl 2-methylenesuccinate]: the results for the IC50 in assay [1] and in assay [2] were 6.7 µM and 3 µM, respectively.

Turning to `C=C(CC(=O)OCCCCCC)C(=O)OCCC(=O)NS(C)(=O)=O` [Example 120], the IC50 in assay [1] amounted to 26.9 µM; in assay [2], 7.7 µM.

Consider `C=C(CC(=O)OCCCCCC)C(=O)OCC(=O)NS(C)(=O)=O` [Example 119, 4-hexyl 1-(2-(methylsulfonamido)-2-oxoethyl) 2-methylenesuccinate], for which the IC50 in assay [1] was found to be 82.4 µM; in assay [2], 47.5 µM.

As for `C=C(CC(=O)OCCCCCCCC)C(=O)OCCC(=O)N1CCOCC1` [Example 108, 1-(3-morpholino-3-oxopropyl) 4-octyl 2-methylenesuccinate], the figures for the IC50 in assay [1] and in assay [2] were 11.1 µM and 3.1 µM, respectively.

With `C=C(CC(=O)OCCCCCCCC)C(=O)OCC(C)OC` (stereo not drawn) [Example 33, 1-(2-methoxypropyl) 4-octyl 2-methylenesuccinate], the half-inhibitory concentration (IC50) in assay [1] amounted to 14.1 µM; in assay [2], 11.7 µM.

For the compound `C=C(CC(=O)OCCCCCCCC)C(=O)OCC(=O)OC(C)(C)C` [Example 48, 1-(2-(tert-butoxy)-2-oxoethyl) 4-octyl 2-methylenesuccinate], the IC50 in assay [1] came to 10.1 µM; in assay [2] it was 5.1 µM.

With `C=C(CC(=O)OC1CCCCC1)C(=O)OC(C)CS(C)(=O)=O` (stereo not drawn) [Example 59, 4-cyclohexyl 1-(1-(methylsulfonyl)propan-2-yl) 2-methylenesuccinate], the IC50 in assay [1] was 13.3 µM; in assay [2] it was 8.8 µM.

`C=C(CC(=O)OC1CCCCC1)C(=O)OCCN1CCCC1=O` [Example 65, 4-cyclohexyl 1-(2-(2-oxopyrrolidin-1-yl)ethyl) 2-methylenesuccinate]: the IC50 in assay [1] is 22.6 µM; in assay [2], 22.4 µM.

Consider `C=C(CC(=O)O[C@H](C)CCCCCC)C(=O)OC(C)CS(C)(=O)=O` (stereo partly drawn) [Example 56, 1-(1-(methylsulfonyl)propan-2-yl) 4-((R)-octan-2-yl) 2-methylenesuccinate], for which the IC50 in assay [1] is 7.9 µM; in assay [2], 3.5 µM.

`C=C(CC(=O)OC1CC2CCC1C2)C(=O)OCC(=O)O` (stereo not drawn) [Example 115, 2-((4-(bicyclo[2.2.1]heptan-2-yloxy)-2-methylene-4-oxobutanoyl)oxy)acetic acid]: the IC50 in assay [1] was 59.5 µM; in assay [2], 36.3 µM.

As to `C=C(CC(=O)OC1CCCCC1)C(=O)OCCS(C)(=O)=O` [Example 61, 4-cyclohexyl 1-(2-(methylsulfonyl)ethyl) 2-methylenesuccinate], the IC50 in assay [1] came to 6.1 µM; in assay [2], 5 µM.

On to `C=C(CC(=O)OC1CCCCCCC1)C(=O)OC1CN(C(C)=O)C1` [Example 63, 1-(1-acetylazetidin-3-yl) 4-cyclooctyl 2-methylenesuccinate], for which the IC50 was 1.3 µM in assay [1] and 2.5 µM in assay [2].

As for `C=C(CC(=O)OCCCCCCCC)C(=O)OCCNS(C)(=O)=O` [Example 53, 1-(2-(methylsulfonamido)ethyl) 4-octyl 2-methylenesuccinate], the IC50 in assay [1] was 9.3 µM; in assay [2], 5.4 µM.

`C=C(CC(=O)OCCCCCCCC)C(=O)OCCC(=O)N(CC)CC` [Example 109, 1-(3-(diethylamino)-3-oxopropyl) 4-octyl 2-methylenesuccinate]: the IC50 came out at 10.6 µM in assay [1] and 6.8 µM in assay [2].

Take `C=C(CC(=O)OC1CCCCCCC1)C(=O)OC(C)CS(C)(=O)=O` (stereo not drawn) [Example 62, 4-cyclooctyl 1-(1-(methylsulfonyl)propan-2-yl) 2-methylenesuccinate]: the IC50 in assay [1] turned out to be 3.5 µM; in assay [2], 2.8 µM.
